According to PMC3780409 (Methods in molecular biology (Clifton, N.J.), 2011):
“Also recorded” adds a separate entry of the source. Like-named read-outs stand apart in the source and are kept apart here.

Assays:
PAR1 [1] = details: guinea pig platelets; cited from earlier work
PAR1 [2] = details: guinea pigs, cited from earlier work
PAR1 [3] = details: cited from earlier work
PAR1 [4] = details: guinea pigs, intravenous administration; cited from earlier work
PAR1-MCF7/N55 = details: cited from earlier work
MDA-MB-231 = MDA-MB-231 (s.q.), 10 mg/kg (i.p. q2d) combination with docetaxel (10 mg/kg i.p. once weekly), p < 0.01; cited from earlier work
OVCAR4 = details: cited from earlier work
GFP/MDA-MB-231 = GFP/MDA-MB-231 (i.v.), 10 mg/kg (s.c. 5 days per week), single agent, p < 0.001; cited from earlier work
SKOV3 = SKOV3 (i.p.), 10 mg/kg (s.c. 5 days per week), single agent; cited from earlier work
[5] = test system: PAR1-expressing breast cancer cells; details: through Akt; cited from earlier work
Akt = details: established tumors treated for 5 days; cited from earlier work
CXCR1/2 = details: sepsis, SIRS, DIC, septic mice; cited from earlier work
PAR4 [6] = details: guinea pigs, cited from earlier work
PAR4 [7] = details: thrombin-preactivated human platelets; cited from earlier work
PAR1 [8] = details: selectivity for PAR4; cited from earlier work
PAR4 [9] = details: cited from earlier work
PAR1 [10] = details: cited from earlier work; for Outcome: sepsis, SIRS, DIC, mice
PAR1 [11] = details: rat aortic rings, vascular tissue preparations; cited from earlier work
PAR4 [12] = details: cited from earlier work; remark: listed apart in the source
PAR1 [13] = details: at higher concentrations; cited from earlier work
[14] = test system: thromboxane, ADP, collagen, or GPIb/IX/V receptors; details: cited from earlier work
human neutrophils = details: cited from earlier work
PAR4 [15] = details: cited from earlier work; remark: listed apart in the source
PAR4 [16] = details: Inflammation/paw edema, carrageenan, mice; cited from earlier work
PAR4 [17] = details: sepsis, SIRS, DIC, mice; cited from earlier work
PAR4 [18] = details: PAR4 agonist in mouse knee joint; cited from earlier work
PAR4 [19] = details: cited from earlier work; remark: listed apart in the source
PAR4 [20] = details: wire injury to the carotid artery of mice, fluorescent platelets; cited from earlier work
PAR4 [21] = details: cited from earlier work; remark: listed apart in the source
PAR4 [22] = details: mice, induced by AYPGKF plus epinephrine; cited from earlier work
[23] = test system: breast MCF-7 cells and melanoma SK-Mel2 cells; details: inhibition of growth, cell line not specified (MCF-7 and SK-Mel2 tested); cited from earlier work
[24] = mouse, in vivo

C15H31CONH-KKSRALF-NH2 [Pepducin P1pal-7]
Outcome (platelet aggregation) (PAR1 [1]): Inhibition of guinea pigs platelet aggregation | prolongation of the occlusion time (PAR1 [2]; 0.3 mg/kg i.v., carotid injury model): approximately 50% | Outcome (arterial occlusion time) (PAR1 [2]; intravenous, carotid artery FeCl3 injury model): prolonged the mean occlusion time; also recorded: Prolonged collagen-induced arterial occlusion time in guinea pigs | p38 MAPK activation (PAR1 [3]; human platelets, collagen): blocked p38 MAPK activation | collagen-induced platelet aggregation (PAR1 [3]; human platelets): inhibition of collagen-induced platelet aggregation | propagation of platelet–platelet thrombi (PAR1 [3]; human whole blood, arterial flow conditions): significantly reduced | collagen-induced thrombocytopenia (PAR1 [4]): protected from collagen-induced thrombocytopenia | Efficacy: tumor burden, reduction in tumor growth (PAR1-MCF7/N55; PAR1-MCF7/N55 (s.q.), 10 mg/kg (s.c. q2d), single agent, p < 0.01): 62% | angiogenesis of breast cancers (PAR1-MCF7/N55): almost completely blocked | Efficacy: tumor burden, reduction in tumor growth (MDA-MB-231): 95% | Efficacy: diaphragm metastasis / peritoneal dissemination (OVCAR4; OVCAR4 (i.p.), 3.6 mg/kg (i.p. q2d) combination with docetaxel (10 mg/kg i.p. once weekly), p < 0.005): Significant reduction in diaphragm metastasis (p < 0.005) | Efficacy: inhibition in ascites formation (OVCAR4; OVCAR4 (i.p.), 10 mg/kg (i.p. q2d), single agent): 60% | ascites production in peritoneal ovarian cancer (OVCAR4; cell line not given): significantly inhibited | angiogenesis of peritoneal ovarian cancers (OVCAR4): almost completely blocked | Efficacy: reduction in metastasis to lung (GFP/MDA-MB-231): 88% | Efficacy: ascites formation (SKOV3): Ascites formation, complete inhibition of ascites | viability of PAR1-expressing breast cancer cells [5]: inhibited the viability | phosphorylation of Akt (Akt): significantly inhibited

N-LCA-YSRVGRSVTD-NH2 [x1/2LCA-i1]
Outcome (CXCR1/2): CXCR1/2 pepducins reduced organ damage, inhibited neutrophil migration, improved survival, and inhibited DIC

N-pal-ATGAPRLPST-NH2 [Pepducin P4pal-i1]
decrease of arterial occlusion (PAR4 [6]; carotid injury model, single agent): approximately 50% | Outcome (arterial occlusion) (PAR4 [6]; when combined with bivalirudin or P1pal-7): Inhibition of arterial occlusion in guinea pigs, when combined with bivalirudin or P1pal-7 | arterial thrombosis, combined with bivalirudin (PAR4 [6]): suppression of arterial thrombosis in guinea pigs to a much higher degree than bivalirudin alone | Outcome (epinephrine-induced Ca2+ flux and aggregation) (PAR4 [7]): inhibited; also recorded: Inhibition of epinephrine-induced Ca^2+ flux | effect on PAR1-induced platelet aggregation (PAR1 [8]): without affecting | human platelet aggregation, combined with bivalirudin (PAR4 [9]): significant inhibition of human platelet aggregation

N-pal-AVANRSKKSRALF-NH2 [Pepducin P1pal-13]
Outcome (PAR1 [10]): Temporally modulated survival, vascular leakage, and DIC | survival and DIC, treatment at late time points (agonist) (PAR1 [10]; septic mice, by inhibiting leakage of endothelial cell tight junctions): improved survival and prevented DIC

N-pal-RCLSSSAVANRSKKSRALF-NH2 [Pepducin P1pal-19]
Outcome (agonist activity: Ca2+ signal, relaxation, prostaglandin E2 release) (PAR1 [11]): promote Ca^2+ signals, prostaglandin E2 release, and persistent relaxation of rat aortic rings in a concentration-dependent manner; also recorded: Promotes Ca^2+ signal, relaxation of rat aortic rings, and prostaglandin E2 release

N-pal-RLAHGYRRGS-NH2 [Rev-P4pal-10, reference compound]
Target (activity class) (PAR4 [12]; reverse-sequence control): Inactive

N-pal-RSLSSSAVANRS-NH2 [Pepducin P1pal-12S]
Outcome (PAR1 [10]): Temporally modulated survival, vascular leakage, and DIC | survival and DIC, treatment at early time points (PAR1 [10]; septic mice): improved survival and prevented DIC | survival and DIC, treatment at late time points (antagonist) (PAR1 [10]; septic mice): but not late time points

N-pal-RTLFKAHMGQKHRAMR-NH2 [x1/2pal-i3]
Outcome (CXCR1/2): CXCR1/2 pepducins reduced organ damage, inhibited neutrophil migration, improved survival, and inhibited DIC

N-pal-SGRRYGHALR-NH2 [Pepducin P4pal-10]
block of PAR1 activation (PAR1 [13]): partially block | effect on ADP, thromboxane, and GPIb/IX/V receptors [14]: did not affect | AYPGKF (PAR4 agonist)-induced aggregation (PAR4 [12]): completely blocked | human platelet aggregation to PAR4 agonists (PAR4 [12]): inhibited | migration of human neutrophils to IP-10, SDF-1α, and S1P (human neutrophils): no effect | migration of human neutrophils to thrombin (human neutrophils): completely blocked | Outcome (tail bleeding time) (PAR4 [15]; mice infused with pepducin): prolonged tail-bleeding times and unstable thrombi formation; also recorded: Prolonged tail bleeding time in mice | extension of bleeding time (PAR4 [15]; mice, intravenous injection, 4 h point): approximately twofold | bleeding time (PAR4 [15]; mice, intravenous injection, 24 h time point): returned to baseline | increase in bleeding time (PAR4 [15]; mice, intravenous injection, after 5 min, maintained for 1 h): threefold to fivefold | prolongation of bleeding time (PAR4 [15]; mice, subcutaneous injection of 3 mg/kg, 4 h after injection): sixfold | PD half-life (PAR4 [15]; mice, subcutaneous injection of 3 mg/kg): approximately 14 h | Outcome (PAR4 [16]): Reduced edema and granulocyte recruitment induced by carrageenan | Outcome (PAR4 [17]): protected against systemic inflammation and DIC; also recorded: Reduced organ damage and inflammatory mediators, inhibited neutrophil migration | Outcome (joint inflammation) (PAR4 [18]): block the proinflammatory and pronociceptive effects of a PAR4 agonist in the mouse knee joint and alleviate acute joint inflammation; also recorded: Reduced agonist induced joint vascular conductance and edema | Outcome (thrombin generation) (PAR4 [19]): delayed the generation of thrombin | Outcome (platelet accumulation) (PAR4 [20]): significant delay in accumulation; also recorded: Delayed platelet accumulation | Outcome (infarct size) (PAR4 [21]; ischemia/reperfusion in rats): Reduced infarct size in ischemia/reperfusion in rats | reduction of myocardium infarct size (PAR4 [21]; rats, intravenous bolus of 10 μg/kg, I/R injury model): approximately 20% | systemic thrombus formation (PAR4 [22]): protected against systemic thrombus formation

Pal-LTYAWHTSFK [SMO-i2-12]
IC50 [23]: 0.06 µM

pal-CGRRYGHALR [[^14C]-P4pal-10C]
increase of radioactivity in urine [24]: fivefold | radioactivity in urine [24]: detected | tissues in which radioactivity appeared ([24]; iv, 1.4 mg/kg): liver, kidney, lungs, and spleen, and lesser amounts to other tissues | tissues in which radioactivity appeared ([24]; iv, 14 mg/kg): kidney, lungs, liver, and spleen with lesser radioactivity appearing in the heart, blood, muscle, and fat, but not the brain | tissues in which radioactivity appeared ([24]; sc, 1 mg/kg): liver, kidney, lungs, and blood | tissues in which radioactivity appeared ([24]; sc, 10 mg/kg): fairly even distribution of radioactivity to the kidney, liver, spleen, blood, heart, and lungs, with lesser amounts to muscle and fat, but not to brain
